Measurements published in US20240115270A1, “DIRECT ORAL ANTICOAGULANT-ELUTING MEDICAL DEVICE” (BOSTON SCIENTIFIC SCIMED, INC., priority 2021, published 2024).

Experiments:
[1] = test system: bovine blood; assay: Thrombogenicity of spray-coated Watchman device in bovine blood; settings: bovine blood ACT=210, 15 minutes
Procedure: A drug/polymer solution of PVDF-HFP and DOAC was prepared in 80/20 acetone/DMSO (wt/wt). The PVDF-HFP to drug ratio was 60/40 (wt/wt) and the solution solids was 2%. The DOAC drug evaluated was rivaroxaban (Xarelto). A 24 mm diameter Watchman device was spray-coated with the polymer/drug solution at a flow rate of 10 ml/hr to apply a basecoat. The device was dried for 30 min at 125° C. in a convection oven and then spray-coated with a topcoat solution (2% PVDF-HFP in 100% acetone), at a flow rate of 10 ml/hr. The total basecoat weight was 38.8 mg and the topcoat weight was 18.7 mg. The spray-coated device was then placed in PBS/Tween solution at 37° C. for 11 days to simulate in vivo drug elution. The device was then rinsed with DI water and dried. A PVDF-HFP-only coated control device was also subjected to the same incubation and rinsing protocol. The DOAC-eluting device and the control device were placed in the same container of bovine blood (ACT=210) on an orbital shaker incubator at 37° C. for 15 minutes to assess the thrombogenicity of the two devices.
A solution of PVDF-HFP and DOAC was prepared in 40/60 acetone/DMF (wt/wt). The PVDF-HFP to drug ratio was 70/30 (wt/wt) and the solution solids was 4%. The DOAC drug evaluated was apixaban. […]

[2] = test system: heparinized bovine blood; assay: Clot formation on dip-coated PET fabric disks in heparinized bovine blood; settings: PVDF-HFP/drug 90/10 dip-coated 15 mm PET fabric disks, ACT about 190 seconds, 37° C., various time points, images FIG. 5
Procedure: A solution of PVDF-HFP and DOAC was prepared in 80/20 acetone/DMSO (wt/wt). The PVDF-HFP to drug ratio was 90/10 (wt/wt) and the solution solids was 0.7%. The DOAC drugs evaluated were apixaban (Eliquis®), rivaroxaban (Xarelto®) and edoxaban (Savaysa®) 15 mm diameter polyethylene terephthalate (PET) fabric disks were dip coated into the polymer/drug solution at a dip speed of 5 mm/sec. The coated disks were dried for 30 min at 125° C. in a convection oven. The drug coated disks and PVDF-HFP only control disks were placed in cups containing heparinized bovine blood adjusted to an active clotting time (ACT) of about 190 seconds using protamine. The cups were placed on an orbital shaker incubator at 37° C. and disks were removed at various time points and imaged. The disks were then dried and weighed to determine clot weight. […] The clot weights provided in FIG. 6 verify the minimal amount of thrombus formed on the DOAC treated fabric.

| Structure (SMILES) | thrombus formation on partially coated (masked) device ([1]; PVDF-HFP/drug 70/30 basecoat plus topcoat, proximal face only, 24 mm Watchman, after 7 days in PBS/Tween at 37° C., FIG. 10B) | thrombus (clots) compared to the PVDF-HFP coated control [2] | thrombus formation on device versus PVDF-HFP-only coated control device ([1]; PVDF-HFP/drug 60/40 basecoat plus topcoat on 24 mm Watchman, after 11 days in PBS/Tween at 37° C., FIGS. 9A-9D) |
| --- | --- | --- | --- |
| COc1ccc(-n2nc(C(N)=O)c3c2C(=O)N(c2ccc(N4CCCCC4=O)cc2)CC3)cc1 [apixaban] | inhibited thrombus formation only on the proximal face of the device | significantly less thrombus |  |
| O=C(NC[C@H]1CN(c2ccc(N3CCOCC3=O)cc2)C(=O)O1)c1ccc(Cl)s1 [rivaroxaban] |  | significantly less thrombus | inhibited thrombus formation on the proximal face of the device to a greater degree than did the control device |
